Calls of active or inactive are those of the source. The calls are words filed in the database; no cut-off is given here.
Key:
[1] = biological target: Intercellular adhesion molecule (ICAM-1), Integrin alpha-L/beta-2 (Homo sapiens, UniProt P05107+P05362+P20701); assay: (§1) Inhibition of LFA1 binding to full length soluble ICAM1 by gamma scintillation counter; type: protein-complex assay
[2] = biological target: Intercellular adhesion molecule (ICAM-1), Integrin alpha-L/beta-2 (Homo sapiens) (UniProt P20701+P05362+P05107); assay: as §1; type: protein-complex assay

Intercellular adhesion molecule (ICAM-1), Integrin alpha-L/beta-2, sequence (P20701 whole entry): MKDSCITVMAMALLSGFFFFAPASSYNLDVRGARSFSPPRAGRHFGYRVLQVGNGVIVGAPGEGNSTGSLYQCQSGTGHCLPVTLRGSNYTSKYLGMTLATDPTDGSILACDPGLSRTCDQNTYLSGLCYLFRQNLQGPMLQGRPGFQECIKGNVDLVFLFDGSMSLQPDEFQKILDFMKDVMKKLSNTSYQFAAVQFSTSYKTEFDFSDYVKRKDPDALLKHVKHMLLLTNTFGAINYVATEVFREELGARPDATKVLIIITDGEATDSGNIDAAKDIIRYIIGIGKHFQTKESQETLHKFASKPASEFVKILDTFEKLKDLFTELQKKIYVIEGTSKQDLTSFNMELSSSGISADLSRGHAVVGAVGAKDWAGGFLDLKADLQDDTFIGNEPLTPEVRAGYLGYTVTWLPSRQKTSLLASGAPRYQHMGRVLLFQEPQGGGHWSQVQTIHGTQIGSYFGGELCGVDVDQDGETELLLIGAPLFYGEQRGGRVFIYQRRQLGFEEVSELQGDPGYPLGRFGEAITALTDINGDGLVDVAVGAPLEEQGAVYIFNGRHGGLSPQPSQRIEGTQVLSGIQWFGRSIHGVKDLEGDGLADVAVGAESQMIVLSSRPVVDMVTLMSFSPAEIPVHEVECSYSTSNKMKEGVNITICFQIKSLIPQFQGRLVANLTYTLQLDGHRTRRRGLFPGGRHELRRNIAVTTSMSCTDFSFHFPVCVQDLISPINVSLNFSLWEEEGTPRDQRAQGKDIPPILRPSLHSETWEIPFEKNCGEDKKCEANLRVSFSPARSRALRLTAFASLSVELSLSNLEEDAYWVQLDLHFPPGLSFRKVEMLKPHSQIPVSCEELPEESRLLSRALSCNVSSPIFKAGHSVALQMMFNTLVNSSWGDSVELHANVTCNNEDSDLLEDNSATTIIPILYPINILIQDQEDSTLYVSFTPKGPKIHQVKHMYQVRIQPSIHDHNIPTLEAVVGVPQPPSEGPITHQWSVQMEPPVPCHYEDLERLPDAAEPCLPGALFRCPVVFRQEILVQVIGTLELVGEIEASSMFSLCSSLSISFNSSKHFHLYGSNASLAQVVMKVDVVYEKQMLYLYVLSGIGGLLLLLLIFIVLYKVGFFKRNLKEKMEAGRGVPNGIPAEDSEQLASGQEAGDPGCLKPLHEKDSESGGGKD
Intercellular adhesion molecule (ICAM-1), Integrin alpha-L/beta-2, sequence (P05362 whole entry): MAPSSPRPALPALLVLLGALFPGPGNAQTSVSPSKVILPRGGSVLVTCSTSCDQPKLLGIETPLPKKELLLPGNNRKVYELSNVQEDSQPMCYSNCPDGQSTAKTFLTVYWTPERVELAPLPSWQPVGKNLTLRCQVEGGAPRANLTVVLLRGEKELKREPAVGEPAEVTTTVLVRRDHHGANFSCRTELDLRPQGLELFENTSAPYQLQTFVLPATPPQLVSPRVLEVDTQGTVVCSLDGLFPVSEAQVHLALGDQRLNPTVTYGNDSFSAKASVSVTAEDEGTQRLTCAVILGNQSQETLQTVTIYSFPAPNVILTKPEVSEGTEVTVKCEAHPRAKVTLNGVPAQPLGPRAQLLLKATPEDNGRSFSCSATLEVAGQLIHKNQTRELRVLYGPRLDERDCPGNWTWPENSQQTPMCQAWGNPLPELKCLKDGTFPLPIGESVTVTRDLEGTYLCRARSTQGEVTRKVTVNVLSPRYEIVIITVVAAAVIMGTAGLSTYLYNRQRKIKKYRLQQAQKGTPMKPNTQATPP
Intercellular adhesion molecule (ICAM-1), Integrin alpha-L/beta-2, sequence (P05107 whole entry): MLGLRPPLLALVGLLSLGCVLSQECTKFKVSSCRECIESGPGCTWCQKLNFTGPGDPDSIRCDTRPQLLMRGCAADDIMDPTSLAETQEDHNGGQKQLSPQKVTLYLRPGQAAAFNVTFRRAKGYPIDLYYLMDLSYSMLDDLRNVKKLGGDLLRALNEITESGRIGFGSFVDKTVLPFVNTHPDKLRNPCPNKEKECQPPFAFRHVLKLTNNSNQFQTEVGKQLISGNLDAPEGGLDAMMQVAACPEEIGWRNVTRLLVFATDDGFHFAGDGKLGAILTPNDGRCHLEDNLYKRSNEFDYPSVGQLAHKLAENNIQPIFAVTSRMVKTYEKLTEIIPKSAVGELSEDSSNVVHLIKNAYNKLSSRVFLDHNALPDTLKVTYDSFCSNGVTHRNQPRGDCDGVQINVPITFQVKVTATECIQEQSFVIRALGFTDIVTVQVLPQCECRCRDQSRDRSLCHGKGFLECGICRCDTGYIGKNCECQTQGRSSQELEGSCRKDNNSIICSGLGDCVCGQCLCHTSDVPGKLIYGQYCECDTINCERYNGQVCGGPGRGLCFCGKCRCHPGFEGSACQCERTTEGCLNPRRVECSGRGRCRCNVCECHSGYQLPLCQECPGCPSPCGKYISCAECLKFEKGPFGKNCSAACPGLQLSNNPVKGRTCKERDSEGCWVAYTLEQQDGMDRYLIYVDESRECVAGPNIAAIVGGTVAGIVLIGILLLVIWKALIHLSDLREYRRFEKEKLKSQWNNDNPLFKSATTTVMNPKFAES

SMILES	IC50 [1] [µM]	Activity [2]
C=C/C(C)=C/C[C@]1(C)[C@H]2C[C@@H](OC(=O)/C(C)=C/C)C[C@@H]3[C@H](OC(C)=O)OC(OC(C)=O)[C@@]32[C@H](O)C[C@@H]1C (some centres undefined) [CASEARINOL A]	50	
C=C/C(C)=C\C[C@]1(C)[C@H]2C[C@@H](OC(C)=O)C[C@@H]3[C@H](OC(C)=O)O[C@H](OC(C)=O)[C@@]32C(=O)C[C@@H]1C		Active
C=C/C(C)=C/C[C@]1(C)[C@H]2C[C@@H](OC(=O)C(C)CC)C[C@@H]3[C@H](OC(C)=O)OC(OC(C)=O)[C@@]32[C@H](O)C[C@@H]1C (some centres undefined)		Active
C=C/C(C)=C/C[C@]1(C)[C@H]2C[C@@H](OC(C)=O)C[C@@H]3[C@H](OC(C)=O)O[C@H](OC(C)=O)[C@@]32C(=O)C[C@@H]1C		Active

From ChEMBL document CHEMBL1158327, “Four new clerodane diterpenes from the leaves of Casearia guianensis which inhibit the interaction of leukocyte function antigen 1 with intercellular adhesion molecule 1” (J Nat Prod, 1997)
